In patent US20190192699A1, “NUCLEAR IMAGING AND RADIOTHERAPEUTICS AGENTS TARGETING CARBONIC ANHYDRASE IX AND USES THEREOF” (THE JOHNS HOPKINS UNIVERSITY, priority 2016, published 2019):

Key:
CAIX [1] = biological target: T1, CAIX (Homo sapiens, UniProt Q16790); test: Competitive fluorescence polarization assay for [113/115In]XYIMSR-01; format: binding; parameters: purchased R&D Systems; settings: for IC50: 100 nM CAIX, 80 nM FITC-labeled 8, read-out: IC50, inhibition of fluorescence polarization of FITC labeled 8; for binding affinity to CAIX (in words): competitive fluorescence polarization
Source text: (§1) General Procedures. Solvents and chemicals obtained from commercial sources were of analytical grade or better and used without further purification. Fmoc-protected azidolysine, HBTU, and N-α-fmoc-L-aspartic acid α-tert-butyl ester were purchased from Chem Impex International, Inc. (Wooddale, Ill.). Carrier-free [^111In]InCl3 was purchased from MDS Nordion (Ottawa, ON, Canada). DOTA-NHS-ester (1,4,7,10-tetraazacyclododecane-1,4,7,10-tetraacetic acid mono N-hydroxysuccinimide ester) was purchased from Macrocyclics, Inc. (Dallas, Tex.). Indium (III) nitrate, triethylsilane (Et3SiH), N,N-diisopropylethylamine (DIEA), triethylamine (TEA), piperidine, 4,4-bis(4-hydroxyphenyl)valeric acid, copper iodide (CuI), and tris[(1-benzyl-1H-1,2,3-triazol-4-yl)methyl]amine (TBTA) were purchased from Sigma-Aldrich (Saint Louis, Mo.). Pre-loaded O-bis-(aminoethyl)ethylene glycol on trityl resin was purchased from EMD Millipore (Billerica, Mass.). Flash chromatography was performed using MP SiliTech 32-63 D 60 Å silica gel purchased from Bodman (Aston, Pa.). Recombinant human CAIX was purchased from R&D Systems (Minneapolis, Minn.). 1H NMR spectra were recorded on a Bruker Ultrashield 500 MHz spectrometer. Chemical shifts (δ) were reported in ppm downfield by reference to proton resonances resulting from incomplete deuteration of the NMR solvent. ESI mass spectra were obtained on a Bruker Daltonics Esquire 3000 Plus spectrometer (Billerica, Mass.).
Competitive Fluorescence Polarization Assay for [^113/115In]XYIMSR-01. Fluorescence polarization (FP) experiments were performed in 21 μL of the assay buffer (12.5 mM Tris-HCl, pH 7.5, 75 mM NaCl) in black flat bottom 384-well microplates (Corning, Inc., New York, N.Y.) The FP reaction employed 100 nM of purified CAIX (R&D systems, Minneapolis, Minn.) and 80 nM FITC-labeled 8 (Wichert, et al., 2015) within the assay buffer. The FP values were measured as mP units using the Victor3 multi-label plate reader equipped with excitation (485 nm) and emission (535 nm) filters (Perkin Elmer, Waltham, Mass.). 100 nM CAIX was incubated with serially diluted (from 1 μM to 61 fM) concentrations of the three targeting molecules, 2, XYIMSR-01, and [^113/115In]XYIMSR-01 for 30 min at room temperature in 384-well plates. 80 nM 8 was added to each well and the reaction was incubated for 30 min at room temperature followed by FP measurement. Experiments were carried out in triplicate and the concentration resulting in 50% response (IC50) was calculated in GraphPad Prism 5 (GraphPad Software, La Jolla, Calif.) using the sigmoidal dose-response regression function.

CAIX [2] = biological target: T1, CAIX; test: Competitive fluorescence polarization assay for [Al19F]XYIMSR-04, [63/65Cu]XYIMSR-06 and [175Lu]XYIMSR-01; format: binding; parameters: purchased R&D Systems; settings: 100 nM CAIX, 80 nM FITC-labeled ligand; read-out: IC50, competitive fluorescence polarization (similar method)
Source text: as §1
Competitive Fluorescence Polarization Assay for [Al^19F]XYIMSR-04, [^63/65Cu]XYIMSR-06, and [^175Lu]XYIMSR-01. Fluorescence polarization (FP) experiments were performed in 21 μL of the assay buffer (12.5 mM Tris-HCl, pH 7.5, 75 mM NaCl) in transparent flat bottom 384 well Small Volume™ LoBase Microplates (Greiner Bio-One, Frickenhausen Germany). The FP reaction employed 100 nM of purified CAIX (R&D systems, Minneapolis, Minn.) and 80 nM FITC-labeled ligand within the assay buffer. The FP values were measured as mP units using the Safire2™ plate reader (Tecan, Morrisville, N.C.) with excitation at 475 nm and emission at 532 nm emission. 100 nM CAIX was incubated with serially diluted (from 8 μM to 488.2 fM) concentrations of the […] targeting molecules, 2, [Al^19F]XYIMSR-04, [^63/65Cu]XYIMSR-06 and [^175Lu]XYIMSR-01 for 30 min at room temperature in 384 well plates. 80 nM FITC-labeled ligand was added to each well and the reaction was incubated for 30 min at room temperature followed by FP measurements. Experiments were carried out in triplicate and the concentration resulting in 50% response (IC50) was calculated in GraphPad Prism 5 (GraphPad Software, La Jolla, Calif.) using the sigmoidal dose-response regression function.

Row | Compound | IC50 (CAIX [1]) [nM] | binding affinity to CAIX (in words) (CAIX [1]) | IC50 (CAIX [2]) [nM]
1 | CC(CCC(=O)N[C@@H](CC(=O)N[C@@H](CC(=O)N[C@@H](CCCCn1cc(CCCC(=O)Nc2nnc(S(N)(=O)=O)s2)nn1)C(=O)NCCOCCOCCNC(=O)CN1CCN(CC(=O)O)CCN(CC(=O)O)CCN(CC(=O)O)CC1)C(=O)O)C(=O)O)(c1ccc(O)cc1)c1ccc(O)cc1 [XYIMSR-01, 2,2′,2″-(10-((14S,18S,22S)-18,22-dicarboxy-27,27-bis(4-hydroxyphenyl)-2,13,16,20,24-pentaoxo-14-(4-(4-(4-oxo-4-((5-sulfamoyl-1,3,4-thiadiazol-2-yl)amino)butyl)-1H-1,2,3-triazol-1-yl)butyl)-6,9-dioxa-3,12,15,19,23-pentaazaoctacosyl)-1,4,7,10-tetraazacyclododecane-1,4,7-triyl)triacetic acid] | 67 | high binding affinity | 
2 | CC(CCC(=O)N[C@@H](CC(=O)N[C@@H](CC(=O)N[C@@H](CCCCn1cc(CCCC(=O)Nc2nnc(S(N)(=O)=O)s2)nn1)C(=O)NCCOCCOCCNC(=O)CN1CCN2CCN(CC1)CC(=O)[O][Al]([F])[O]C(=O)C2)C(=O)O)C(=O)O)(c1ccc(O)cc1)c1ccc(O)cc1 [[Al^19F]XYIMSR-04, [Al^19F] 2,2′-(7-((14S,18S,22S)-18,22-dicarboxy-27,27-bis(4-hydroxyphenyl)-2,13,16,20,24-pentaoxo-14-(4-(4-(4-oxo-4-((5-sulfamoyl-1,3,4-thiadiazol-2-yl)amino)butyl)-1H-1,2,3-triazol-1-yl)butyl)-6,9-dioxa-3,12,15,19,23-pentaazaoctacosyl)-1,4,7-triazonane-1,4-diyl)diacetic acid] |  |  | 96.7 ± 3.3
3 | CC(CCC(=O)N[C@@H](CC(=O)N[C@@H](CC(=O)N[C@@H](CCCCn1cc(CCCC(=O)Nc2nnc(S(N)(=O)=O)s2)nn1)C(=O)NCCOCCOCCNC(=S)Nc1ccc(CC2CN(CC(=O)O)CCN(CC(=O)O)CCN2CC(=O)O)cc1)C(=O)O)C(=O)O)(c1ccc(O)cc1)c1ccc(O)cc1.[Cu] (stereo partly drawn) [[^63/65Cu]XYIMSR-06, [^63/65Cu]2,2′,2″-(2-(4-(3-((11S,15S,19S)-15,19-dicarboxy-24,24-bis(4-hydroxyphenyl)-10,13,17,21-tetraoxo-11-(4-(4-(4-oxo-4-((5-sulfamoyl-1,3,4-thiadiazol-2-yl)amino)butyl)-1H-1,2,3-triazol-1-yl)butyl)-3,6-dioxa-9,12,16,20-tetraazapentacosyl)thioureido)benzyl)-1,4,7-triazonane-1,4,7-triyl)triacetic acid] |  |  | 156 ± 4.3
4 | CC(CCC(=O)NC(CC(=O)NC(CC(=O)NC(CCCCn1cc(CCCC(=O)Nc2nnc(S(N)(=O)=O)s2)nn1)C(=O)NCCOCCOCCNC(=O)CN1CCN(CC(=O)O)CCN(CC(=O)O)CCN(CC(=O)O)CC1)C(=O)O)C(=O)O)(c1ccc(O)cc1)c1ccc(O)cc1 (stereo not shown) [[^113/115In]XYIMSR-01] | 108 | high binding affinity | 
5 | CC(CCC(=O)N[C@@H](CC(=O)N[C@@H](CC(=O)N[C@@H](CCCCn1cc(CCCC(=O)Nc2nnc(S(N)(=O)=O)s2)nn1)C(=O)NCCOCCOCCNC(=O)CN1CCN(CC(=O)O)CCN(CC(=O)O)CCN(CC(=O)O)CC1)C(=O)O)C(=O)O)(c1ccc(O)cc1)c1ccc(O)cc1.[Lu] [[^175Lu]XYIMSR-01, [^175Lu]2,2′,2″-(10-((14S,18S,22S)-18,22-dicarboxy-27,27-bis(4-hydroxyphenyl)-2,13,16,20,24-pentaoxo-14-(4-(4-(4-oxo-4-((5-sulfamoyl-1,3,4-thiadiazol-2-yl)amino)butyl)-1H-1,2,3-triazol-1-yl)butyl)-6,9-dioxa-3,12,15,19,23-pentaazaoctacosyl)-1,4,7,10-tetraazacyclododecane-1,4,7-triyl)triacetic acid] |  |  | 122 ± 3.8
